Measured values reported in patent US20130224223A1, “Compositions and Methods for Treating Neurological Disorders” (GEORGIA REGENTS UNIVERSITY, priority 2007, published 2013).

How the values were obtained:
[1] = tested on: prefrontal cortical slices; test: eIPSC recording in prefrontal cortical slices; type: cell-based, mice; settings: for evoked IPSCs (eIPSCs): substance alone, no other exogenous agent, AG1478/AG879 5 mM [sic]
Experimental: Transverse prefrontal cortical slices (0.3 mm) were prepared from P28-P36 mice using a Vibroslice (Leica VT 10005) in the ice-cold solution, which contained 2.5 mM KCl, 1.25 mM NaH2PO4, 10 mM MgSO4, 0.5 mMCaCl2, 26 mM NaHCO3, 10 mM glucose, and 230 mM sucrose. Slices were allowed to recover for at least 2 hr in ACSF (1 hr at 34° C. followed by 1 hr at 22° C.) in a solution containing 126 mM NaCl, 2.5 mM KCl, 1.25 mM NaH2PO4, 2 mM MgSO4, 2 mM CaCl2, 26 mM NaHCO3, and 10 mM glucose. Slices were placed in the recording chamber and superfused (1.5 ml/min) with ACSF at 34° C. All solutions were saturated with 95% O2/5% CO2. Neurons were visualized with an IR-sensitive CCD camera with a 403 water-immersion lens (Zeiss, Axioskop2 Fsplus) and recorded using whole-cell voltage-clamp techniques (MultiClamp 7008 Amplifier, Digidata 1320A analog-to-digital converter) and pClamp 9.2 software (Axon Instruments). Glass pipettes were filled with the solution containing 125 mM Cs-gluconate, 10 mM CsCl, 1 mM MgCl2, 10 mM HEPES, 1 mM EGTA, 0.1 mM CaCl2, 10 mM sodium phosphocreatine, 4 mM Mg-ATP, 0.3 mM GTP, 0.2 mM leupeptin, and 5 mM lidocaine N-ethylchloride (QX314) (pH 7.2, with the osmolarity adjusted to 280 mOsm with sucrose). The resistance of pipettes was 2-3 MΩ For mIPSC recording, QX314 was omitted in the pipette filling solution, whereas […] was included in the superfusing solution. eIPSCs were generated with a two-concentric bipolar stimulating electrode ([…] pole separation; FHC, ME) positioned about […] from the neuron under recording. Single or paired pulses of 0.2 ms were delivered at 0.1 Hz and synchronized using a Mater-8 stimulator (A.M.P.I). The holding potential for both mIPSCs and eIPSCs was −65 mV. All experiments were done at 34° C. in the presence of 6-cyano-7-nitroquinoxaline-2,3-dione (CNQX, […]) and AP-5 ([…]) to block AMPA/NMDA receptors. Data were collected when series resistance fluctuated within 15% of initial values (8-15 MU), they were filtered at 2 kHz, and they were sampled at 10 kHz.

cortical slices = test: [3H]GABA release from prefrontal cortical slices; type: cell-based, mice; settings: 20 mM KCl; for depolarization-evoked [3H]GABA release: substance alone, no other exogenous agent, AG1478/AG879 5 mM [sic]
Experimental: FIG. 2A is a line graph of [^3H]GABA release fraction/total fraction versus time (mins). Cortical slices were preloaded with [^3H]GABA for 30 min in the presence of b-alanine (1 mM), an inhibitor of [^3H]GABA uptake by glial cells, aminooxyacetic acid (0.1 mM), an inhibitor of GABA degradation, and nipecotic acid (1 mM), an inhibitor of the GABA transporter in neurons. Basal and depolarization (20 mM KCl)-evoked release of [^3H]GABA were monitored sequentially. Controls (open circles) and NRG1 (closed circles). FIG. 2B is a line graph of percent [^3H]GABA release versus NRG1 concentration (nM). Basal (open circles) K+ evoked (closed circles). […] FIG. 2D is a line graph of cumulative counts versus mIPSC amplitude (pA). Controls (open circles) and NRG1 (closed circles). FIG. 2E is a line graph of cumulative counts versus mIPSC interevent interval (ms). Controls (open circles) and NRG1 (closed circles). FIG. 2F is a bar graph of mIPSC (percent) in control and NRG1 treated pyramidal neurons in prefrontal cortical slices (n=12). Amplitude (clear) and Frequencies (hatched). FIG. 2G is a bar graph of percent eIPSC amplitude in prefrontal cortical slices treated with NRG1 versus control or washout. n=12, *p<0.01. Representative eIPSCs of control, NRG1-treated, or NRG1-treated/washed slices are shown on top. FIG. 2H is a line graph of percent eIPSC amplitude versus NRG1 (nM). n=6, *p<0.05, **p<0.01. FIG. 2I is a bar graph of K^+ evoked [^3H]GABA release (percent) (left axis, clear rectangles) and eIPSC amplitude (percent) (right axis, hatched rectangles) in prefrontal cortical slices treated with NRG1, denature NRG1, or BDNF. n=8 for [^3H]GABA release; for eIPSCs, n=6 for control, NRG1, and denatured NRG1, and n=4 for BDNF. *p<0.05, #p<0.05; **p<0.05, ##<0.01.
NRG1 may regulate GABAergic neurotransmission. To test this hypothesis, the effects of NRG1 on GABA release in cortical slices were determined by both biochemical and electrophysiological approaches. Basal [^3H]GABA release was low, at a rate of 3.75±0.35% (n=8) of total radioactivity per 10 min (FIG. 2A). Treatment of slices with 20 mM KCl, a condition known to depolarize neurons, increased [^3H]GABA release by 2.5-3.5 folds within 10 min (FIG. 2A). NRG1 had no effect on basal [^3H]GABA release; by contrast, it increased depolarization-evoked GABA release in a dose-dependent manner (FIG. 2B). […] Furthermore, the NRG regulation remained unchanged in the presence of antagonists of metabotropic glutamate receptors, cholinergic receptors, serotonin receptors, adrenergic receptors and/or dopamine receptors. As a control, BDNF decreased depolarization-evoked GABA release and eIPSCs in cortical slices, in agreement with earlier studies (Canas, et al., Brain Res, 1016:72-78 (2004); Frerking, et al., J Neurophysiol, 80:3383-3386 (1998)).

[2] = tested on: PV-Cre;ErbB4−/− and PV-Cre;ErbB4+/+ mice; test: pre-pulse inhibition (PPI) test; type: in vivo; settings: 3 mg/kg
Description: FIG. 16A is a bar graph showing the baseline startle response (startle amplitude) for PV-Cre;ErbB4+/+ (white bar, n=7) and PV-Cre;ErbB4−/− (hatched bar, n=6) mice under no stimulus, 70 dB (−) and startle stimulus, 120 dB (+), respectively; P>0.05). FIG. 16B is bar graph showing pre-pulse inhibition (%) for PV-Cre;ErbB4+/+ (white bar, n=7) and PV-Cre;ErbB4−/− (hatched bar, n=6) mice at three different levels of pre-pulse (75 dB, 80 dB, 85 dB), P=0.004. PPI=100−100%×(PPx/P120), in which PPx was the amplitude of the startle response after each pre-pulse and P120 was basal startle amplitude. FIG. 16C is a bar graph showing pre-pulse inhibition (%) for PV-Cre;ErbB4+/+ and PV-Cre;ErbB4−/− mice at three different levels of pre-pulse (75 dB, white bars) (80 dB, hatched bars), (85 dB, stippled bars), treated with vehicle or 3 mg/kg diazepam. Repeated measures, * P<0.05, # P=0.573. For vehicle treatment, n=10 and 12 for PV-Cre;ErbB4−/− mice and PV-Cre;ErbB4+/+ littermates, respectively; for diazepam treatment, n=9 and 11 for PV-Cre; ErbB4−/− and PV-Cre;ErbB4+/+, respectively. […]

Molecule | evoked IPSCs (eIPSCs) [1] | NRG1 potentiation of eIPSCs ([1]; substance given with exogenous NRG1 (5 nM)) | depolarization-evoked [3H]GABA release (cortical slices) | NRG1-enhanced evoked GABA release (cortical slices; substance given with exogenous NRG1) | PPI in PV-Cre;ErbB4−/− mice ([2]; acute administration, mutant mice) | PPI in control mice ([2]; after 30-min treatment, PV-Cre;ErbB4+/+ littermates)
CC(C)(C)c1cc(/C=C(\C#N)C(N)=S)cc(C(C)(C)C)c1O [AG879] | no detectable effect | no detectable effect | no detectable effect | no detectable effect | – | –
CN1C(=O)CN=C(c2ccccc2)c2cc(Cl)ccc21 [diazepam] | – | – | – | – | significantly enhanced | no effect
BDNF: BDNF, a gift from Regeneron; used as a control (protein, UniProt P23560 19-247, looked up) Neurotrophic factor BDNF …: APMKEANIRGQGGLAYPGVRTHGTLESVNGPKAGSRGLTSLADTFEHVIEELLDEDQKVRPNEENNKDADLYTSRVMLSSQVPLEPPLLFLLEEYKNYLDAANMSMRVRRHSDPARRGELSVCDSISEWVTAADKKTAVDMSGGTVTVLEKVPVSKGQLKQYFYETKCNPMGYTKEGCRGIDKRHWNSQCRTTQSYVRALTMDSKKRIGWRFIRIDTSCVCTLTIKRGR | decreased | – | decreased | – | – | –
